Laboratory results: US8754068B2, “Modified C-3 betulinic acid derivatives as HIV maturation inhibitors” (priority 2010, dated 2014)
pEC50: −log10 of the molar value.

Tested on: recombinant NL4-3 virus (Renilla luciferase in nef, Gag P373S)
Assay: HIV cell culture assay (luciferase reporter virus in MT-2 cells)
Type: cell-based
Conditions: NL43
Outline: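 Activity was read as luciferase output (Dual Luciferase reagents premixed with lysis solution) after 4–5 days of infection in serially diluted inhibitor. Host cells were MT-2 in 10% FBS RPMI. The reporter virus came from transfected 293T cells and was titered on MT-2.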

Row | SMILES | pEC50
1 | C=C(C)[C@@H]1CC[C@]2(CO)CC[C@]3(C)[C@H](CC[C@@H]4[C@@]5(C)CC=C(c6ccc(NS(C)(=O)=O)cc6)C(C)(C)[C@@H]5CC[C@]43C)[C@@H]12 [Example 5i, N-(4-((1R,3aS,5aR,5bR,7aR,11aS,11bR,13aR,13bR)-3a-(hydroxymethyl)-5a,5b,8,8,11a-pentamethyl-1-(prop-1-en-2-yl)-2,3,3a,4,5,5a,5b,6,7,7a,8,11,11a,11b,12,13,13a,13b-octadecahydro-1H-cyclopenta[a]chrysen-9-yl)phenyl)methanesulfonamide] | < 6.00
2 | C=C(C)[C@@H]1CC[C@]2(C(=O)O)CC[C@]3(C)[C@H](CC[C@@H]4[C@@]5(C)CC=C(c6ccc(/C=C/C(=O)O)cc6)C(C)(C)[C@@H]5CC[C@]43C)[C@@H]12 [Example 4h, (1R,3aS,5aR,5bR,7aR,11aS,11bR,13aR,13bR)-9-(4-((E)-2-carboxyvinyl)phenyl)-5a,5b,8,8,11a-pentamethyl-1-(prop-1-en-2-yl)-2,3,3a,4,5,5a,5b,6,7,7a,8,11,11a,11b,12,13,13a,13b-octadecahydro-1H-cyclopenta[a]chrysene-3a-carboxylic acid] | > 6.00
3 | C=C(C)[C@@H]1CC[C@]2(C(=O)O)CC[C@]3(C)[C@H](CC[C@@H]4[C@@]5(C)CC=C(c6ccc(C(=O)O)c(Cl)c6)C(C)(C)[C@@H]5CC[C@]43C)[C@@H]12 [Example 4o, (1R,3aS,5aR,5bR,7aR,11aS,11bR,13aR,13bR)-9-(4-carboxy-3-chlorophenyl)-5a,5b,8,8,11a-pentamethyl-1-(prop-1-en-2-yl)-2,3,3a,4,5,5a,5b,6,7,7a,8,11,11a,11b,12,13,13a,13b-octadecahydro-1H-cyclopenta[a]chrysene-3a-carboxylic acid] | > 6.00
4 | C=C(C)[C@@H]1CC[C@]2(CO)CC[C@]3(C)[C@H](CC[C@@H]4[C@@]5(C)CC=C(c6ccc(O)c(F)c6)C(C)(C)[C@@H]5CC[C@]43C)[C@@H]12 [Example 5f, 2-fluoro-4-((1R,3aS,5aR,5bR,7aR,11aS,11bR,13aR,13bR)-3a-(hydroxymethyl)-5a,5b,8,8,11a-pentamethyl-1-(prop-1-en-2-yl)-2,3,3a,4,5,5a,5b,6,7,7a,8,11,11a,11b,12,13,13a,13b-octadecahydro-1H-cyclopenta[a]chrysen-9-yl)phenol] | > 6.00
5 | CC(C)[C@@H]1CC[C@]2(C(=O)O)CC[C@]3(C)[C@H](CC[C@@H]4[C@@]5(C)CC[C@H](c6ccc(C(=O)O)cc6)C(C)(C)[C@@H]5CC[C@]43C)[C@@H]12 [Example 3b, (1S,3aS,5aR,5bR,7aS,9S,11aS,11bR,13aR,13bR)-9-(4-carboxyphenyl)-1-isopropyl-5a,5b,8,8,11a-pentamethylicosahydro-1H-cyclopenta[a]chrysene-3a-carboxylic acid] | > 6.00
6 | C=C(C)[C@@H]1CC[C@]2(C(=O)OC)CC[C@]3(C)[C@H](CC[C@@H]4[C@@]5(C)CC=C(c6cccc(C(=O)O)c6)C(C)(C)[C@@H]5CC[C@]43C)[C@@H]12 [Example 1a, 3-((1R,3aS,5aR,5bR,7aR,11aS,13aR,13bR)-3a-(methoxycarbonyl)-5a,5b,8,8,11a-pentamethyl-1-(prop-1-en-2-yl)-2,3,3a,4,5,5a,5b,6,7,7a,8,11,11a,11b,12,13,13a,13b-octadecahydro-1H-cyclopenta[a]chrysen-9-yl)benzoic acid] | < 6.00
7 | C=C(C)[C@@H]1CC[C@]2(C(=O)O)CC[C@]3(C)[C@H](CC[C@@H]4[C@@]5(C)CC=C(c6cccc(-c7nn[nH]n7)c6)C(C)(C)[C@@H]5CC[C@]43C)[C@@H]12 [Example 4i, (1R,3aS,5aR,5bR,7aR,11aS,11bR,13aR,13bR)-9-(3-(2H-tetrazol-5-yl)phenyl)-5a,5b,8,8,11a-pentamethyl-1-(prop-1-en-2-yl)-2,3,3a,4,5,5a,5b,6,7,7a,8,11,11a,11b,12,13,13a,13b-octadecahydro-1H-cyclopenta[a]chrysene-3a-carboxylic acid] | < 6.00
8 | C=C(C)[C@@H]1CC[C@]2(CO)CC[C@]3(C)[C@H](CC[C@@H]4[C@@]5(C)CC=C(c6ccc(O)cc6C)C(C)(C)[C@@H]5CC[C@]43C)[C@@H]12 [Example 5h, 4-((1R,3aS,5aR,5bR,7aR,11aS,11bR,13aR,13bR)-3a-(hydroxymethyl)-5a,5b,8,8,11a-pentamethyl-1-(prop-1-en-2-yl)-2,3,3a,4,5,5a,5b,6,7,7a,8,11,11a,11b,12,13,13a,13b-octadecahydro-1H-cyclopenta[a]chrysen-9-yl)-3-methylphenol] | < 6.00
9 | C=C(C)[C@@H]1CC[C@]2(CO)CC[C@]3(C)[C@H](CC[C@@H]4[C@@]5(C)CC=C(c6ccc(S(N)(=O)=O)cc6)C(C)(C)[C@@H]5CC[C@]43C)[C@@H]12 [Example 5j, 4-((1R,3aS,5aR,5bR,7aR,11aS,11bR,13aR,13bR)-3a-(hydroxymethyl)-5a,5b,8,8,11a-pentamethyl-1-(prop-1-en-2-yl)-2,3,3a,4,5,5a,5b,6,7,7a,8,11,11a,11b,12,13,13a,13b-octadecahydro-1H-cyclopenta[a]chrysen-9-yl)benzenesulfonamide] | > 6.00
